16 substances from patent US12534493B2, “Bridged nucleoside and nucleotide” (Liid Pharmaceuticals, Inc., priority 2020, dated 2026) can be followed below.

Common to all, as to type: binding
Series [1] concerns double-stranded hairpin DNA: 5′-d(GGCAGAAGAAAAAGAGACGC)-C18 spacer-d(GCGTCTCTTTTTCTTCTGCC)-3′ (SEQ ID NO: 23). Nature of the series: Melting temperature (Tm) measurement, triple strand-forming ability, with double-stranded hairpin DNA. Particulars: triplex with double-stranded hairpin DNA; for Tm: footnote: 10 mM sodium phosphate buffer (pH 7.0), 200 mM NaCl, 5 mM MgCl2; for ΔTm/mod.: change per modification vs natural oligonucleotide. Here is the method: […] The sample solution was cooled to 15° C., and the measurement was started. The temperature was raised to 90° C. at a rate of 0.5° C. per minute, and the absorbance at 260 nm was plotted at intervals of 0.5° C. All Tm values were calculated by the midline method and the average of three independent measurement results was taken.

Series [2] relates to single-stranded RNA: 5′-r(ACGAGAACAUCC)-3′ (SEQ ID NO: 11). Nature of the series: Melting temperature (Tm) measurement, double strand-forming ability, with single-stranded RNA. To be noted: duplex with single-stranded RNA SEQ ID NO: 11; for Tm: 10 mM phosphate buffer (pH7.0), 200 mM NaCl, 2.5 μM each oligonucleotide; for ΔTm/mod.: change per modification vs natural oligonucleotide. Here is the method: (§1) A sample solution ([…]) with final concentrations of 10 mM phosphate buffer (pH7.0), 200 mM sodium chloride, and 2.5 μM each oligonucleotide was immersed in boiling water and slowly cooled to room temperature. The sample solution was cooled to 20° C., and the measurement was started. The temperature was raised to 90° C. at a rate of 0.5° C. per minute, and the absorbance at 260 nm was plotted at intervals of 0.5° C. All Tm values were calculated by the midline method and the average of three independent measurement results was taken.
(§2) conditions: 10 mM sodium phosphate buffer (pH7.0) containing 200 mM NaCl, […] of each strand

Series [3] has as its system single-stranded DNA: 5′-d(ACGAGAACATCC)-3′ (SEQ ID NO: 12). Nature of the series: Melting temperature (Tm) measurement, double strand-forming ability, with single-stranded DNA. To be noted: duplex with single-stranded DNA SEQ ID NO: 12; for Tm: 10 mM phosphate buffer (pH7.0), 200 mM NaCl, 2.5 μM each oligonucleotide; for ΔTm/mod.: change per modification vs natural oligonucleotide. Here is the method: as §1, §2

“5′ -TCTTCTTTTTCTCT-3′: unmodified triplex-forming oligonucleotide; C shows 2′-deoxy-5-methylcytidine (DNA, all C 5-methyl, backbone not given here; triplex-forming oligonucleotide)”: in series [1], the Tm came out at 31 °C.
Consider “5′ -TCTTCTTXTTCTCT-3′: modified oligonucleotide with one X modification; C shows 2′-deoxy-5-methylcytidine (DNA TCTTCTTTTTCTCT; X modified nucleotide; 5-methylcytidines; (2)..(2) 2′-Deoxy-5-methylcytidine; (5)..(5) 2′-Deoxy-5-methylcytidine; misc_difference (8)..(8) Me-TaNA; (11)..(11) 2′-Deoxy-5-methylcytidine; (13)..(13) 2′-Deoxy-5-methylcytidine)”, for which, in series [1], the ΔTm/mod. result was “+5.0 °C” and the Tm worked out at 36 °C.
The like results for “5′ -TCTTCTTYTTCTCT-3′: modified oligonucleotide with one Y modification; C shows 2′-deoxy-5-methylcytidine (DNA TCTTCTTTTTCTCT; Y modified nucleotide; 5-methylcytidines; (2)..(2) 2′-Deoxy-5-methylcytidine; (5)..(5) 2′-Deoxy-5-methylcytidine; misc_difference (8)..(8) LNA; (11)..(11) 2′-Deoxy-5-methylcytidine; (13)..(13) 2′-Deoxy-5-methylcytidine)” were, in that order, “+6.0 °C” and 37 °C.
On to “5′ -TCTTCTTZTTCTCT-3′: modified oligonucleotide with one Z modification; C shows 2′-deoxy-5-methylcytidine (DNA TCTTCTTTTTCTCT; Z modified nucleotide; 5-methylcytidines; (2)..(2) 2′-Deoxy-5-methylcytidine; (5)..(5) 2′-Deoxy-5-methylcytidine; misc_difference (8)..(8) ENA; (11)..(11) 2′-Deoxy-5-methylcytidine; (13)..(13) 2′-Deoxy-5-methylcytidine)”, for which, in series [1], the ΔTm/mod. result is “+5.0 °C” and the Tm came out at 36 °C.
Taken in the same sequence, the figures for “5′ -TCTTCTXXXTCTCT-3′: modified oligonucleotide with three consecutive X modifications (DNA TCTTCTTTTTCTCT; three X modified nucleotides; (2)..(2) 2′-Deoxy-5-methylcytidine; (5)..(5) 2′-Deoxy-5-methylcytidine; misc_difference (7)..(7) Me-TaNA; misc_difference (8)..(8) Me-TaNA; misc_difference (9)..(9) Me-TaNA; (11)..(11) 2′-Deoxy-5-methylcytidine; (13)..(13) 2′-Deoxy-5-methylcytidine)” were “+6.3 °C” and 50 °C.
On to “5′ -TCTTCTYYYTCTCT-3′: modified oligonucleotide with three consecutive Y modifications (DNA TCTTCTTTTTCTCT; three Y modified nucleotides; (2)..(2) 2′-Deoxy-5-methylcytidine; (5)..(5) 2′-Deoxy-5-methylcytidine; misc_difference (7)..(7) LNA; misc_difference (8)..(8) LNA; misc_difference (9)..(9) LNA; (11)..(11) 2′-Deoxy-5-methylcytidine; (13)..(13) 2′-Deoxy-5-methylcytidine)”, for which, in series [1], the ΔTm/mod. entry was “+5.0 °C” and the Tm stood at 46 °C.
The like results for “5′ -TCTTCTZZZTCTCT-3′: modified oligonucleotide with three consecutive Z modifications (DNA TCTTCTTTTTCTCT; three Z modified nucleotides; (2)..(2) 2′-Deoxy-5-methylcytidine; (5)..(5) 2′-Deoxy-5-methylcytidine; misc_difference (7)..(7) ENA; misc_difference (8)..(8) ENA; misc_difference (9)..(9) ENA; (11)..(11) 2′-Deoxy-5-methylcytidine; (13)..(13) 2′-Deoxy-5-methylcytidine)” were, in that order, “+5.7 °C” and 48 °C.
Turning to “5′ -TCTTCXTXTXCTCT-3′: modified oligonucleotide with three separated X modifications (DNA TCTTCTTTTTCTCT; three X modified nucleotides; (2)..(2) 2′-Deoxy-5-methylcytidine; (5)..(5) 2′-Deoxy-5-methylcytidine; misc_difference (6)..(6) Me-TaNA; misc_difference (8)..(8) Me-TaNA; misc_difference (10)..(10) Me-TaNA; (11)..(11) 2′-Deoxy-5-methylcytidine; (13)..(13) 2′-Deoxy-5-methylcytidine)”, in series [1], the ΔTm/mod. result was “+7.3 °C” and the Tm was found to be 53 °C.
Turning to “5′ -TCTTCYTYTYCTCT-3′: modified oligonucleotide with three separated Y modifications (DNA TCTTCTTTTTCTCT; three Y modified nucleotides; (2)..(2) 2′-Deoxy-5-methylcytidine; (5)..(5) 2′-Deoxy-5-methylcytidine; misc_difference (6)..(6) LNA; misc_difference (8)..(8) LNA; misc_difference (10)..(10) LNA; (11)..(11) 2′-Deoxy-5-methylcytidine; (13)..(13) 2′-Deoxy-5-methylcytidine)”, in series [1], the ΔTm/mod. result was “+6.7 °C” and the Tm came out at 51 °C.
Taken in the same sequence, the figures for “5′ -TCTTCZTZTZCTCT-3′: modified oligonucleotide with three separated Z modifications (DNA TCTTCTTTTTCTCT; three Z modified nucleotides; (2)..(2) 2′-Deoxy-5-methylcytidine; (5)..(5) 2′-Deoxy-5-methylcytidine; misc_difference (6)..(6) ENA; misc_difference (8)..(8) ENA; misc_difference (10)..(10) ENA; (11)..(11) 2′-Deoxy-5-methylcytidine; (13)..(13) 2′-Deoxy-5-methylcytidine)” were “+6.7 °C” and 51 °C.
On to “5′-GGATGXXCTCGT-3′: modified oligonucleotide with two consecutive X modifications (DNA GGATGTTCTCGT; DNA oligonucleotide with modified nucleotide X, X not given here, further chemistry not given here)”, for which, in series [2], the Tm was determined as 66 °C and the ΔTm/mod. entry is “+7.0 °C”. Moreover, in series [3], the Tm came to 58 °C and the ΔTm/mod. entry is “+3.5 °C”.
Regarding “5′-GGATGYYCTCGT-3′: modified oligonucleotide with two consecutive Y modifications (DNA GGATGTTCTCGT; two Y modified nucleotides; misc_difference (6)..(6) LNA; misc_difference (7)..(7) LNA)”, in series [2], the Tm came out at 64 °C and the ΔTm/mod. result was “+6.0 °C”. Moreover, in series [3], the Tm worked out at 57 °C and the ΔTm/mod. entry was “+3.0 °C”.
The like results for “5′-GGATGZZCTCGT-3′: modified oligonucleotide with two consecutive Z modifications (DNA GGATGTTCTCGT; two Z modified nucleotides; misc_difference (6)..(6) ENA; misc_difference (7)..(7) ENA)” were, in that order, 64 °C, “+6.0 °C”, 57 °C and “+3.0 °C”.
With “5′-GGAXGXTCTCGT-3′: modified oligonucleotide with two separated X modifications (DNA GGATGTTCTCGT; DNA oligonucleotide with modified nucleotide X, X not given here, further chemistry not given here)”, in series [2], the Tm turned out to be 66 °C and the ΔTm/mod. entry was “+7.0 °C”. Besides, in series [3], the Tm came to 58 °C and the ΔTm/mod. result is “+3.5 °C”.
The like results for “5′-GGAYGYTCTCGT-3′: modified oligonucleotide with two separated Y modifications (DNA GGATGTTCTCGT; two Y modified nucleotides; misc_difference (4)..(4) LNA; misc_difference (6)..(6) LNA)” were, in that order, 65 °C, “+6.5 °C”, 58 °C and “+3.5 °C”.
Taken in the same sequence, the figures for “5′-GGAZGZTCTCGT-3′: modified oligonucleotide with two separated Z modifications (DNA GGATGTTCTCGT; two Z modified nucleotides; misc_difference (4)..(4) ENA; misc_difference (6)..(6) ENA)” were 65 °C, “+6.5 °C”, 57 °C and “+3.0 °C”.
